“And” between values parts separate entries of the source, which are not always exact repeats. Identical values can stand only once.
Test system: THP-1 viability, CellTiter-Glo luminescence, 72 h
Experiment: PubChem AID 2252

SMILES | EC50
CC(=O)Nc1nc(C)c(-c2csc(Nc3ccc(O)cc3)n2)s1 | 4.01 µM
O=C(CC(=O)c1c(F)cccc1Cl)c1ccccc1O | 27.4 µM
Cc1nc2ccccc2c(N)c1C(=O)/C=C/c1ccccc1 | 3.11 µM
C#CCOCCOCCOCCNc1nc(N2CCN(C(=O)[C@H]([C@@H](C)CC)n3cc([C@@H](N)Cc4ccc(O)cc4)nn3)CC2)nc(N2CCN(C(=O)[C@H](Cc3cc4ccccc4[nH]3)n3cc([C@@H](N)CC(C)C)nn3)CC2)n1 | < 0.1 µM
O=[N+]([O-])/C=C/c1cc2ccccc2[nH]1 | 44.9 µM
CCCCCCCCCCCCCCCC[n+]1cccc(C(=O)N(CC)CC)c1 | 0.44 µM
O=C(NC(=S)NNC(=O)c1cccs1)c1ccc(Br)o1 | 27.5 µM
O=C(O)c1cn(C2CC2)c2cc(N3CCN(S(=O)(=O)c4ccc5c(c4)OCCO5)CC3)c(F)cc2c1=O | < 0.1 µM
O=C(CSc1ccccn1)N/N=C/c1cc([N+](=O)[O-])ccc1O | 21.5 µM
CCC[C@H](CN[C@@H](CNC)[C@H](C)CC)NCCc1cc(C(F)(F)F)cc(C(F)(F)F)c1 | 4.07 µM
O=[N+]([O-])c1cccc2c(N3CCCC3)ccnc12 | 9.77 µM
NC(=NCCCCCCN=C(N)/N=C(\N)Nc1ccc(Cl)cc1)/N=C(\N)Nc1ccc(Cl)cc1 | 3.5 µM and 1.62 µM and 3.91 µM
Cc1c(CN(C)C)c2c(n1Cc1ccccc1)C(=O)c1ccc(Br)cc1-2 | 21.1 µM
O=C1C=C(Nc2ccccc2O)c2ccccc2C1=O | 10.8 µM
CCCCCCC[N+](CC)(CC)CCCCc1ccc(Cl)cc1 | 3.22 µM
O=C(c1cccs1)c1no[n+]([O-])c1C(=O)c1cccs1 | 1.89 µM
CNC[C@@H](Cc1ccccc1)NC[C@@H](CC1CCCCC1)NCCCc1ccccc1 | 3.56 µM
COc1ccc(Cc2nnc(N/N=C/c3ccc(O)cc3)[nH]c2=O)cc1OC | 0.57 µM
O=C(NCCCN1CCN(c2ccc(F)cc2)CC1)Nc1ccc([N+](=O)[O-])cc1 | 45.1 µM
COC(=O)c1ccc(Cn2c(O)c(N=NC(N)=S)c3ccccc32)o1 | 12.7 µM
O=C(CNCCC1=CCCCC1)Nc1ccc(N2CCCCCC2)cc1 | 15.6 µM
CC(NCc1ccc(-c2ccccc2)cc1)C(O)c1ccccc1 (stereo unspecified) | 5.49 µM
CN(C)CCCNC(=S)NCC(c1ccc(Cl)cc1Cl)c1c[nH]c2ccccc12 (stereo unspecified) | 3.66 µM
Cc1c(Cl)cccc1Nc1nc(NCCO)c2ccccc2n1 | 10.1 µM

SMILES | EC50
CCSc1ccc2c(c1)N(CCCN1CCN(C)CC1)c1ccccc1S2 | 12.8 µM
CCCCCc1ccc(OCCC[n+]2ccccc2)c(CCCCC)c1 | 1.59 µM
O=C(N/N=C/c1cc([N+](=O)[O-])ccc1O)C(O)(c1ccccc1)c1ccccc1 | 11.8 µM
CCOC(=O)Cn1c(=N)n(CCOc2ccc3ccccc3c2)c2ccccc21 | 17.7 µM
COc1ccc(Nc2c3c(nc4ccccc24)CCC3)cc1 | 3.42 µM
O=C(CCl)NC1CCCc2ccccc21 (stereo unspecified) | 25.7 µM
O=C(N/N=C/c1sc2ccccc2c1O)c1cccc2ccccc12 | 2.58 µM
Cc1ccc(N2C(N)=C(C#N)C(c3cccnc3)C3=C2CC(C)(C)CC3=O)cc1 (stereo unspecified) | 32.9 µM
CN1CCN(c2nc3cc(C(F)(F)F)ccc3n3cccc23)CC1 | 42.3 µM
CCOC(=O)c1c(C)sc2c1N(C(C)=O)c1cc(Cl)ccc1S2 | 44.1 µM
c1ccc(Nc2nc(NCc3ccco3)c3ccccc3n2)cc1 | 4.95 µM
CCCCc1ccc2[nH]cc(CCN)c2c1 | 7.81 µM
O=c1[nH][nH]c(-c2ccccc2O)c1C(C[N+](=O)[O-])c1ccc(Br)cc1 (stereo unspecified) | 21.1 µM
N=c1c2c(-c3ccccc3)c(-c3ccccc3)n(Cc3ccco3)c2ncn1CCCn1ccnc1 | 7.71 µM
CSc1ccc2c(c1)C(N1CCN(C)CC1)Cc1ccccc1S2 (stereo unspecified) | 9.33 µM
Cc1cccn2c(=O)c(C=O)c(Cl)nc12 | 26.8 µM
CCOC(=O)COc1cccc2c(=O)n(CC(=O)N3CCCCC3)ccc12 | 24.5 µM
NC1=NC[C@H](c2ccccc2)N1CCc1cc(C(F)(F)F)cc(C(F)(F)F)c1 | 3.81 µM
Cc1cc(NC2CCCCC2)nc(NCc2ccccc2)n1 | 14.9 µM
NC1=NC[C@H](CC2CCCCC2)N1CCc1cc(C(F)(F)F)cc(C(F)(F)F)c1 | 6.33 µM
c1ccc(CN2CCC(Nc3nc(-c4cccs4)nc4ccccc34)CC2)cc1 | 8.03 µM
c1ccc(CN2CCN(c3ncnc4c3[nH]c3ccccc34)CC2)cc1 | 20 µM
Cc1ccc2oc(=O)c(/C=C(\O)c3ccccc3)nc2c1 | < 0.1 µM
COc1ccc(C(C(=O)Nc2ccc(C(C)C)cc2)N(Cc2ccco2)C(=O)CC2NC(=O)NC2=O)cc1 (stereo unspecified) | 31.9 µM

SMILES | EC50
O=[N+]([O-])c1cc(O)c2ncccc2c1 | 5.78 µM
COc1cc(CNCCc2c[nH]c3ccccc23)ccc1OCc1ccc(F)cc1 | 6.34 µM
OCCCCNCc1ccc(OCc2ccccc2Cl)cc1 | 34.6 µM
CC(C)CCC(CCNCc1ccccn1)c1ccc(Cl)cc1 (stereo unspecified) | 16.2 µM
c1ccc2c(SCc3cn4ccccc4n3)nncc2c1 | < 0.1 µM
O=C(N/N=C/c1cc(Br)ccc1O)c1ccccc1Cl | 1.49 µM
Brc1ccc2c(c1)C(OC1CN3CCC1CC3)c1ccccc1CS2 (stereo unspecified) | 8.31 µM
COc1cc(Br)cc(/C=N/c2ncn[nH]2)c1O | 49.9 µM
CC(Nc1nc(N2CCCCC2)nc2ccccc12)c1ccccc1 (stereo unspecified) | 7.12 µM
CN1CCN(c2ccc(NC(=O)c3ccc(-c4ccc(Br)cc4)o3)cc2)CC1 | 7.84 µM
CC(NCC(O)COc1ccc2ccccc2c1)c1ccccc1 (stereo unspecified) | 6.71 µM
NC1=NC2(CCCCC2)N=C(Nc2ccc(Br)cc2)N1 | 2.39 µM
Cc1ccc2nc(N(CCCN(C)C)C(=O)c3ccc4c(c3)CCCC4)sc2c1 | 9.42 µM
O=[N+]([O-])c1ccc(O)c2ncccc12 | 5.99 µM
Cc1cc(C2N=C(N)Nc3nc4ccccc4n32)c(C)n1-c1ccccc1Cl (stereo unspecified) | 11.4 µM
COc1ccc(CNCCc2c[nH]c3ccccc23)c(OC)c1C | 8.57 µM
NC(=O)c1ccsc1NC(=O)c1ccc2c(c1)CCCC2 | 40.4 µM
Cc1oc2c(O)c(O)ccc2c(=O)c1-c1ccccc1 | 24.9 µM
CC(=O)CC1OC(=O)C(Br)=C1NCc1ccccc1 (stereo unspecified) | 9.9 µM
O=C(CSc1nc2ccccc2s1)N/N=C/c1cc([N+](=O)[O-])ccc1O | 27.5 µM
CC(NCC(O)COCCC12CC3CC(CC(C3)C1)C2)c1ccccc1 (stereo unspecified) | 9.86 µM
Oc1ccc(Cl)cc1Cc1cc(Cl)ccc1O | 19.5 µM
CCN1/C(=C/C=C/C=C/c2sc3ccccc3[n+]2CC)Sc2ccccc21 | 7.7 µM
COc1cc([N+](=O)[O-])cc(/C=N/NC(=O)CSc2ccccn2)c1O | 34.7 µM

SMILES | EC50
NCC/C=C1/c2ccccc2CSc2ccccc21 | 25.9 µM
CC(C(=O)NC1C=CS(=O)(=O)C1)N1C(=O)/C(=C/c2cccc(Cl)c2)SC1=S (stereo unspecified) | 24.5 µM
CNCCC=C1c2ccccc2CCc2ccccc21 | 22.5 µM
CCc1ccc(Nc2n[n+](-c3ccccc3)c(-c3c(Cl)cccc3Cl)s2)cc1 | 3.75 µM
O=C(C[n+]1cc(Br)cc2ccccc21)c1ccc(F)cc1 | < 0.1 µM
N=c1c2c(n(Cc3ccc(Cl)c(Cl)c3)c3c1CCC3)CCCC2 | 4.66 µM
Cc1nc2c(=O)n(C)c(=O)nc-2n(C)n1 | 2.17 µM
Cc1nc(N)nc(N)c1CCCc1ccc(Cl)c(Cl)c1 | 5.79 µM
O=C(Nc1ccc(Cl)cc1)N1CCCN(Cc2ccccc2F)C1 | 45.8 µM
Clc1ccc(OCCCNCc2ccccc2)c(Br)c1 | 13.7 µM
O=C(CNC(=O)c1ccccc1)N/N=C/c1ccc([N+](=O)[O-])s1 | 16.9 µM
N=c1n(CCN2CCCCC2)c2ccccc2n1CC(=O)c1ccc(Cl)c(Cl)c1 | 20.4 µM
CCN(CC)CCCCCCCCOC(=O)c1cc(OC)c(OC)c(OC)c1 | 47.9 µM
CNCCCC1Sc2ccccc2Oc2ccccc21 (stereo unspecified) | 23.6 µM
O=C(N/N=C\c1c[nH]c2ccccc12)c1ccc(O)cc1 | < 0.1 µM
C#CCOCCOCCOCCNc1nc(N2CCN(C(=O)CCCCCCCCCCNC(=O)[C@H]([C@@H](C)CC)n3cc(CCCCN=C(N)N)nn3)CC2)nc(N2CCN(C(=O)CCCCCCCCCCNC(=O)[C@H](CO)n3cc(CCCCCN)nn3)CC2)n1 | 7.5 µM
CCCCNC(=S)Nc1ccc([N+](=O)[O-])cc1 | 28.8 µM
Cc1ccc2c(c1)c1c(n2CC(O)CN2CCC(C)CC2)CCCC1 (stereo unspecified) | 16 µM
CCc1cccc2c1Sc1ccccc1CC2N1CCNCC1 (stereo unspecified) | 9.72 µM
O=C(CC1NCCc2ccccc21)Nc1ccc(Oc2ccccc2)cc1 (stereo unspecified) | 14.3 µM
Cc1ccccc1-n1ncc2c([N+](=O)[O-])cc([N+](=O)[O-])cc21 | 26.6 µM
c1ccc(Nc2nc(NCC3CCCO3)c3ccccc3n2)cc1 (stereo unspecified) | 3.83 µM
CC1=NN(c2nc3ccccc3[nH]2)C(=O)C1Cc1ccccc1 (stereo unspecified) | 1.85 µM
C1=C(CCNc2ncnc3c2[nH]c2ccccc23)CCCC1 | 5.45 µM

SMILES | EC50
COc1cc([N+](=O)[O-])cc(/C=N/NC(=O)C(C)Nc2cccc(C)c2)c1O (stereo unspecified) | 27 µM
CNCCCC1c2ccccc2C=Cc2ccccc21 | 24.5 µM
Cc1ccc(-c2cc(-c3ccc(C)cc3)[n+](-c3ccccc3)c(-c3ccc(C)cc3)c2)cc1 | 0.49 µM
S=C(NCc1ccc(Cl)cc1)Nc1ccncc1 | 40.1 µM
O=[N+]([O-])c1cc(Cl)cc(/C=N/NC(=S)Nc2ccc(S(=O)(=O)N3CCOCC3)cc2)c1O | 27.1 µM
O=CN/N=C/c1c(O)ccc2ccccc12 | 5.1 µM
OC1(c2ccc(Cl)cc2)CCN(Cc2c[nH]c3ccccc23)CC1 | 9.75 µM
O=C(N/N=C/c1ccc([N+](=O)[O-])s1)c1ccccc1Br | 15.2 µM
O=C(Cn1nc(CNc2ccc(Br)cc2)[n+]2c1CCCCC2)c1ccc([N+](=O)[O-])cc1 | 27.3 µM
CSc1ccc2c(c1)N(CCC1CCCCN1C)c1ccccc1S2 (stereo unspecified) | 13 µM
O=C(CCN1CCN(c2ccccc2)CC1)N/N=C/c1ccc([N+](=O)[O-])o1 | 43.9 µM
O=C1C(Cl)=C(NCc2cccnc2)C(=O)c2ccccc21 | 12.5 µM
Cc1cc2oc(=O)cc(CN3CCN(C/C=C/c4ccccc4)CC3)c2cc1O | 18.6 µM
CN(C)CCCN(C(=O)COc1ccccc1)c1nc2ccc(Cl)cc2s1 | 46.8 µM
CCCCCCCCCCCCCCCC[N+](C)(C)CC | 0.48 µM
O=[N+]([O-])c1cc(F)c2cccnc2c1O | 22.9 µM
Cc1ccc(C(=O)N/N=C\c2ccc([N+](=O)[O-])s2)cn1 | 13.2 µM
OC(CNCCc1ccc(Cl)cc1)COc1cc(Cl)ccc1Cl (stereo unspecified) | 29.8 µM
c1cc2c(cc1Oc1nc(N3CCOCC3)nc(N3CCOCC3)n1)OCO2 | < 0.1 µM
COc1ccc(/C=N/NC(=O)c2ccc3c(c2)OCO3)cc1 | 48.7 µM

Source: PubChem BioAssay AID2252 (Southern Research Specialized Biocontainment Screening …, 2010)
